Results from the NIST ThermoML archive (doi:10.1016/j.fluid.2016.01.011).
± gives the expanded uncertainty stated by the source.

Experiments:
[1] = Molar enthalpy of transition or fusion; conditions: Crystal; DSC
[2] = Crystal; DTA

SMILES | Molar enthalpy of transition or fusion [1] [kcal/mol] | Normal melting temperature [2] [°C]
CCCCCCCCCCCCCCCCCC(=O)O [octadecanoic acid] | 15.4 ± 0.55 | 70.83 ± 0.61
CCCCCCCCCCCCCC(=O)O [tetradecanoic acid] | 10.7 ± 0.406 | 54.53 ± 0.84
CCCCC/C=C\C/C=C\CCCCCCCC(=O)O [(Z,Z)-9,12-octadecadienoic acid] | 8.15 ± 0.215 | -4.91 ± 0.58
